Reference: patent publication US20050019742A1, “Methods for assessment of platelet aggregation” (priority 2002, published 2005)
Where a SMILES comes first, the peptide text is derived from it. Bridges are numbered along the chain shown (N, C = ends). [ ]: non-standard residue; d: D form. hArg = N=C(N)NCCCC[C@H](N)C(=O)O; Mpa = O=C(O)CCS

Legend:
platelet aggregation [1] = assay: ICHOR/Plateletworks whole blood platelet aggregation (platelet count), PPACK anticoagulant, ADP agonist; format: cell-based, human; conditions: for platelet inhibition measured by ICHOR/Plateletworks: samples in which Ultegra measures inhibition of 80% or greater, average lower end of a range reaching greater than 80%, PPACK whole blood, ADP 20 μM
Description: Whole blood platelet aggregation was performed using a procedure modified from that outlined in the Helena Plateletworks® brochure. PPACK anticoagulant was used instead of citrate due to the well-documented effect of citrate overestimating the level of platelet inhibition by all currently approved GPIIb-IIIa antagonists (Phillips et al., “Effect of Ca^++ on Integrilin™ GPIIb-IIIa Interactions: Enhanced GPIIb-IIIa Binding and Inhibition of Platelet Aggregation by Reductions in the Concentration of Ionized Calcium in Plasma Anticoagulated with Citrate,” Circulation 96:1488-1494 (1997); Nannizzi-Alaimo et al., “Effect of Citrate Anticoagulation and Platelet Agonist Concentration on the Inhibitory Activities of GPIIb-IIIa Antagonists,” Circulation 100:1710 (1999); Kereiakes et al., “Differential Effects of Citrate Versus PPACK Anticoagulation on Measured Platelet Inhibition by Abciximab, Eptifibatide and Tirofiban,” J. Thromb. Thrombolysis 12:123-127 (2001); Jennings et al., “The Pharmacodynamics of Parenteral Glycoprotein IIb/IIIa Inhibitors,” J. Interv. Cardiol. 15(1):45-60 (2002), each of which is hereby incorporated by reference in its entirety). For this assay, 1.0 ml of PPACK anticoagulated whole-blood was mixed with increasing concentrations of eptifibatide or tirofiban and incubated for at least 2 minutes. After addition of ADP (20 μM), the tube was inverted 15-20 times to ensure mixing, and the platelet count was performed immediately (test sample). A baseline tube was also drawn and handled exactly as the antagonist sample tube minus the addition of agonist. A platelet count was also performed on blood collected into EDTA per the manufacturer's instructions. Percent inhibition of platelet aggregation was obtained from the platelet inhibition/aggregation calculation wheel provided with Plateletworks®.
When testing samples containing Reopro, the ICHOR instrument never achieves more than 60% inhibition of aggregation. […]

platelet aggregation [2] = assay: Light transmission aggregometry (LTA) in PPACK platelet rich plasma, ADP-induced aggregation; format: cell-based, human; conditions: samples in which Ultegra measures inhibition of 80% or greater, average lower end of a range reaching greater than 80%, ADP 20 μM
Description: Sufficient blood volume was collected to complete matched comparisons for each donor in all three assays. Using a 19 g butterfly needle, blood was collected by venipuncture into a plastic syringe and transferred to a tube containing PPACK anticoagulant (0.3 mM final concentration) or into PPACK vacuettes provided by Ultegra®. An EDTA baseline tube was also drawn per Plateletworks® recommendation. One 10 mL sample of PPACK blood was centrifuged at 135 g for 15 minutes to obtain platelet rich plasma (“PRP”) for use in traditional light transmission aggregometry. The residual blood from this tube was centrifuged at 1500 g for 15 minutes to obtain platelet poor plasma (“PPP”). PRP was diluted to 250,000/mm^3 with autologous PPP. Diluted PRP (0.5 ml) was added to an aggregation cuvette and placed into the 37° C. aggregation chamber. Eptifibatide (125-4000 nM) or tirofiban (25-200 nM) was added to PRP, incubated for at least two minutes. 50 μl ADP (20 μM final concentration) was added to 0.45 ml PRP and the aggregation response was recorded. A baseline aggregation response (no antagonist present) was determined for each donor. Percent aggregation was calculated at the point of maximum light transmission obtained within five minutes. Percent inhibition of aggregation (IPA) was calculated using the following formula: [formula]

N=C(N)NCCCC[C@@H]1NC(=O)CCSSC[C@@H](C(N)=O)NC(=O)[C@@H]2CCCN2C(=O)[C@H](Cc2c[nH]c3ccccc23)NC(=O)[C@H](CC(=O)O)NC(=O)CNC1=O [eptifibatide] ([Mpa][hArg]GDWPC-NH2; disulfide 1-7)
platelet inhibition measured by ICHOR/Plateletworks (platelet aggregation [1]): ≥ 30% | platelet inhibition measured by LTA (platelet aggregation [2]): ≥ 30%

CCCCS(=O)(=O)N[C@@H](Cc1ccc(OCCCCC2CCNCC2)cc1)C(=O)O [tirofiban]
platelet inhibition measured by ICHOR/Plateletworks (platelet aggregation [1]): ≥ 35% | platelet inhibition measured by LTA (platelet aggregation [2]): ≥ 35%

B1: Reopro: antibody based GPIIbIIIa antagonist (antibody, chains of the INN, looked up, V domains shown)
VH: EVQLQQSGTVLARPGASVKMSCEASGYTFTNYWMHWVKQRPGQGLEWIGAIYPGNSDTSYIQKFKGKAKLTAVTSTTSVYMELSSLTNEDSAVYYCTLYDGYYVFAYWGQGTLVTVSA
VL: EIVLTQSPVTLSVTPGDSVSLSCRASRDISNNLHWFQQTSHESPRLLIKYASQSMSGIPSRFSGSGSGTDFTLSINSVETEDFGMYFCQQTNSWPYTFGGGTKLEIK
modifications: Fab
notes: antibody based GPIIbIIIa antagonist
inhibition of aggregation (maximum achieved on ICHOR instrument) (platelet aggregation [1]; samples containing Reopro, microaggregates are counted as aggregation): ≤ 60%
